Values after ≈ are worked out from the molar mass of the structure shown. Counter-ions that a name gives are not always drawn. Where only a bound is given, the exact number is not on record here.

One data set has as its system animal tumor systems. To be noted: reported in literature; cited from earlier work.
A further data set relates to mouse L1210 leukemia. The data set is described as follows: Prolongation of survival time of CDF1 mice inoculated intraperitoneally with L1210 leukemia cells. The data set is classed as in vivo, mouse (CDF1). The settings on record: for inhibitory effects on mouse L1210 leukemia: summary statement in words. On the procedure: Rhodirubin A and B show a marked antitumor activity with low toxicity in experimental animal tests and thus are therapeutically useful in inhibiting the growth of animal tumors. […] For example, CDF1 mice were inoculated intraperitoneally with 1 × 10^6 L1210 cells/mouse and 0.1-0.2 ml. of drug solution then administered intraperitoneally for 10 consecutive days. Observation was carried out for 30 days, and the % of prolongation of survival time to the control mice intraperitoneally administered with physiological saline was as follows: […]

The subject of the next data set is B. megaterium NRRL-938. The data set is described as follows: Minimum inhibitory concentration, broth dilution method. The settings on record: Priestia megaterium, NRRL938. The data set is classed as cell-based.
The next data set concerns gram-positive bacteria. The data set is described as follows: Antimicrobial activity (summary statement). Type of data set: cell-based. To be noted: against gram-positive bacteria.
In data set [1] the test system is Candida albicans IAM 4905. The data set is described as follows: Minimum inhibitory concentration, broth dilution method. Type of data set: cell-based. The settings on record: IAM4905. A general note: Broth dilution looks for growth in wells or tubes with falling amounts of substance.
For data set [2], the system named is Mycobacterium smegmatis ATCC 607. The description is as above. To be noted: Mycolicibacterium smegmatis, ATCC607. Type of data set: cell-based.
The test system of another data set is Sarcina lutea ATCC 9341. The data set is described as above. The settings on record: Micrococcus luteus, ATCC9341. The data set is classed as cell-based.
A further data set can be described thus: in vivo. To be noted: mouse, ip, mice, intraperitoneal injection. From the text: The LD50 values upon intraperitoneal injection (in mice) of rhodirubin A and B are as follows: […]
For another data set, the system named is mammalian tumor cells. Kind of data set: Cytotoxicity to mammalian tumor cells in culture.
Data set [3] can be described thus: Toxicity in experimental animal tests (summary statement). To be noted: summary statement in words.
The subject of data set [4] is Candida tropicalis IAM 4942. The data set is described as follows: Minimum inhibitory concentration, broth dilution method. The settings on record: IAM4942. The data set is classed as cell-based.
A further data set deals with Coryne: bovis. The description is as above. Type of data set: cell-based.
Another data set concerns B. subtilis ATCC 6633. Kind of data set: Minimum inhibitory concentration, broth dilution method. The data set is classed as cell-based. The settings on record: Bacillus subtilis, ATCC6633.
Data set [5] deals with Ps. fluorescens NIHJB-254. Described as above. The settings on record: Pseudomonas fluorescens, NIHJB254. The data set is classed as cell-based.
A further data set deals with Proteus morganii. The data set is described as above. Type of data set: cell-based. To be noted: Morganella morganii.
For another data set, the system named is Staph. aureus FDA 209P. The data set is described as above. The data set is classed as cell-based. To be noted: Staphylococcus aureus, FDA209P.
The test system of data set [6] is solid and ascitic forms of malignant tumors in mammals, e.g. mouse leukemia L1210. Kind of data set: Inhibition of growth of solid and ascitic malignant tumors in mammals (summary statement). Type of data set: in vivo.
The next data set deals with Micrococcus flavus. The data set is described as follows: Minimum inhibitory concentration, broth dilution method. The data set is classed as cell-based.
In a further data set the test system is B. cereus ATCC 9634. Described as above. Type of data set: cell-based. The settings on record: Bacillus cereus, ATCC9634.
The next data set has as its system Staph. aureus Smith. The description is as above. To be noted: Staphylococcus aureus. Type of data set: cell-based.
Where [7] appears, read: in methanol, n-butanol, acetone, ethyl acetate, chloroform, toluene, benzene and dimethylsulfoxide.
Where [8] appears, read: in water, n-hexane and petroleum ether.

Regarding `CC(=O)[C@]1(O)Cc2c(O)c3c(c(O)c2[C@@H](O[C@H]2C[C@H](N)[C@H](O)[C@H](C)O2)C1)C(=O)c1c(O)cccc1C3=O` [carminomycin], in the data set with animal tumor systems, the “activity against several animal tumor systems” value is on record as “active against several animal tumor systems”.

`CCC1(O)CC(OC2CC(N(C)C)C(OC3CC(O)C(OC4CCC(O)C(C)O4)C(C)O3)C(C)O2)c2c(cc3c(c2O)C(=O)c2c(O)ccc(O)c2C3=O)C1C(=O)OC` (centres unmarked) [rhodirubin A (HC1 salt)]: the “Prolongation of the survival time T/C (%)” value in the data set with mouse L1210 leukemia (ip, 0.6 mg/kg, 720 h) is reported as 102%; in the data set with mouse L1210 leukemia (ip, 1.25 mg/kg, 720 h) it was 117%; in the data set with mouse L1210 leukemia (ip, 2.5 mg/kg, 720 h), 167%; in the data set with mouse L1210 leukemia (ip, 5 mg/kg, 720 h), 195%; in the data set with mouse L1210 leukemia (ip, 8.5 mg/kg, 720 h), 121%; with mouse L1210 leukemia (ip, 10 mg/kg, 720 h) it was 87%.

Take `CCC1(O)CC(OC2CC(N(C)C)C(OC3CC(O)C(OC4CCC(O)C(C)O4)C(C)O3)C(C)O2)c2c(cc3c(c2O)C(=O)c2c(O)ccc(O)c2C3=O)C1C(=O)OC` (centres unmarked) [rhodirubin A]: the MIC with B. megaterium NRRL-938 is 0.78 µg/mL (≈ 0.94 µM); in data set [1], above 100 µg/mL; in data set [2], 6.25 µg/mL (≈ 7.53 µM); in the data set with Sarcina lutea ATCC 9341 it was 0.4 µg/mL (≈ 0.482 µM); in [4], above 100 µg/mL; in the data set on Coryne: bovis, 0.2 µg/mL (≈ 0.241 µM). Also, the MIC against B. subtilis ATCC 6633 was 0.78 µg/mL (≈ 0.94 µM); in data set [5] it was 100 µg/mL (≈ 120 µM); in the data set on Proteus morganii, above 100 µg/mL; in the data set on Staph. aureus FDA 209P, 1.56 µg/mL (≈ 1.88 µM); against Micrococcus flavus, 0.2 µg/mL (≈ 0.241 µM); against B. cereus ATCC 9634 it was 0.2 µg/mL (≈ 0.241 µM). This molecule also had a minimum inhibitory concentration (MIC) with Staph. aureus Smith of 0.4 µg/mL (≈ 0.482 µM). Also, the antimicrobial activity entry in the data set on gram-positive bacteria was “possess antimicrobial activity, especially against gram-positive bacteria”; in the data set on gram-positive bacteria (listed as Rhodirubin A), “exhibit antimicrobial activity against gram-positive bacteria”. Besides, in the data set “in vivo”, the median lethal dose (LD50) was in the range of 7.5 to 10 mg/kg. The “inhibitory effects on mouse L1210 leukemia” value with mouse L1210 leukemia is “marked inhibitory effects”. The cytotoxicity result in the data set with mammalian tumor cells is “high cytotoxicity”. The toxicity entry in data set [3] is listed as “low toxicity”. Moreover, the results for the Solubility entry in the data set “Solubility” (in diethyl ether), in “Solubility” (setting [7]) and in “Solubility” (setting [8]) were “slightly soluble”, “soluble” and “insoluble”, respectively. In addition, in data set [6], the “inhibition of growth of malignant tumors” value was “inhibit the growth of solid and ascitic forms of malignant tumors in mammals”.

Regarding `CCC1(O)CC(OC2CC(N(C)C)C(OC3CCC(OC4CCC(O)C(C)O4)C(C)O3)C(C)O2)c2c(cc3c(c2O)C(=O)c2c(O)ccc(O)c2C3=O)C1C(=O)OC` (centres unmarked) [rhodirubin B (HC1 salt)], the “Prolongation of the survival time T/C (%)” value came to 107% in the data set on mouse L1210 leukemia (0.6 mg./kg./day, i.p., 10 consecutive days, observed 30 days, vs physiological saline controls); 126% with mouse L1210 leukemia (1.25 mg./kg./day, i.p., 10 consecutive days, observed 30 days, vs physiological saline controls); 215% with mouse L1210 leukemia (2.5 mg./kg./day, i.p., 10 consecutive days, observed 30 days, vs physiological saline controls); 179% in the data set with mouse L1210 leukemia (5 mg./kg./day, i.p., 10 consecutive days, observed 30 days, vs physiological saline controls); 160% in the data set with mouse L1210 leukemia (8.5 mg./kg./day, i.p., 10 consecutive days, observed 30 days, vs physiological saline controls); 104% in the data set on mouse L1210 leukemia (10 mg./kg./day, i.p., 10 consecutive days, observed 30 days, vs physiological saline controls).

Turning to `CCC1(O)CC(OC2CC(N(C)C)C(OC3CCC(OC4CCC(O)C(C)O4)C(C)O3)C(C)O2)c2c(cc3c(c2O)C(=O)c2c(O)ccc(O)c2C3=O)C1C(=O)OC` (centres unmarked) [rhodirubin B], the MIC with B. megaterium NRRL-938 was 1.56 µg/mL (≈ 1.92 µM); in [1] it was above 100 µg/mL; in [2], 3.1 µg/mL (≈ 3.81 µM); in the data set on Sarcina lutea ATCC 9341, 0.78 µg/mL (≈ 0.958 µM); in [4] it was above 100 µg/mL; in the data set with Coryne: bovis, 0.4 µg/mL (≈ 0.491 µM). Besides, the MIC in the data set on B. subtilis ATCC 6633 was 1.56 µg/mL (≈ 1.92 µM); in data set [5] it was 100 µg/mL (≈ 123 µM); against Proteus morganii, above 100 µg/mL; with Staph. aureus FDA 209P, 1.56 µg/mL (≈ 1.92 µM); against Micrococcus flavus it was 0.2 µg/mL (≈ 0.246 µM); in the data set on B. cereus ATCC 9634, 0.4 µg/mL (≈ 0.491 µM). For the same molecule, the lowest concentration to inhibit growth in the data set with Staph. aureus Smith (MIC) was 0.78 µg/mL (≈ 0.958 µM). Also, the antimicrobial activity entry is “possess antimicrobial activity, especially against gram-positive bacteria” with gram-positive bacteria and “exhibit antimicrobial activity against gram-positive bacteria” in the data set with gram-positive bacteria (listed as Rhodirubin B). The LD50 in “in vivo” lay within 10 to 12.5 mg/kg. Further, the “inhibitory effects on mouse L1210 leukemia” value with mouse L1210 leukemia is on record as “marked inhibitory effects”. Moreover, the cytotoxicity result in the data set on mammalian tumor cells is “high cytotoxicity”. For the same molecule, the toxicity result in [3] is “low toxicity”. Besides, the values for the Solubility entry in “Solubility” (in diethyl ether), in the data set “Solubility” (setting [7]) and in “Solubility” (setting [8]) were “slightly soluble”, “soluble” and “insoluble”, respectively. For the same molecule, the “inhibition of growth of malignant tumors” value in data set [6] was “inhibit the growth of solid and ascitic forms of malignant tumors in mammals”.

A word on the MIC: it is the smallest concentration in the dilution series that meets the test's criterion for growth inhibition. A higher MIC goes with a less susceptible organism. For orientation: LD50 means the dose expected to kill half of the subjects tested. The low end stands for a more toxic substance, the high end for a less toxic substance.

The record behind these values is patent US4127714A, “Anthracycline glycosides” (priority 1976, dated 1978).
